The structures appear in SMILES notation. Some results are limits rather than exact numbers.

For orientation: inhibition means the drop in the measured response relative to a control, in per cent.

Assay [1] deals with Serotoninergic 5-HT2B (Homo sapiens, UniProt P41595). The experiment in a line: CNS receptor binding assay. The settings on record: read-out: % Inhibition of control specific binding.
Assay [2] concerns the target Serotoninergic 5-HT1A (Homo sapiens, UniProt P08908). The experiment in a line: CNS receptor binding assay. As to conditions: read-out: % Inhibition of control specific binding.
The target of assay [3] is Noradrenergic Transporter (Homo sapiens, UniProt P23975). The assay is described as follows: CNS receptor binding assay. As to conditions: [3H] nisoxetine, Human recombinant (CHO cells), read-out: % Inhibition of control specific binding.
Sequence of Noradrenergic Transporter (P23975 whole entry): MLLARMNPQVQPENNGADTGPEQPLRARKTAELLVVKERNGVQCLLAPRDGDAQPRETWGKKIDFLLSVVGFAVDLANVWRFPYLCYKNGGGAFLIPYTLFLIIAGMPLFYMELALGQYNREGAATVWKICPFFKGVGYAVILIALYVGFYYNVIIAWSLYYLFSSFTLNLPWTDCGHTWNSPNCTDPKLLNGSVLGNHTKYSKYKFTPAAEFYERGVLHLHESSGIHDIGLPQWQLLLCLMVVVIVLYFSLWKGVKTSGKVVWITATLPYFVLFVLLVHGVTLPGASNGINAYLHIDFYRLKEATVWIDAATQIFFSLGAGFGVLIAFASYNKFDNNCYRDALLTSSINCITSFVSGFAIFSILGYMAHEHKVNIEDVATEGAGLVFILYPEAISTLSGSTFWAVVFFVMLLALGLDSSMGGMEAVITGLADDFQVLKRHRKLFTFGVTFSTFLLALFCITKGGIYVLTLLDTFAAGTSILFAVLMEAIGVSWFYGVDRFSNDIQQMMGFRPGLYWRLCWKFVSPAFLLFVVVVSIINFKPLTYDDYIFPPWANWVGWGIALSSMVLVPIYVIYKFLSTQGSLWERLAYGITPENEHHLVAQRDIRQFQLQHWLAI
Assay [4] has as its target Muscarinic (Cholinergic) M5 (Homo sapiens, UniProt P08912). The assay is described as follows: CNS receptor binding assay. The settings on record: [3H] 4-DAMP, Human recombinant (CHO cells), read-out: % Inhibition of control specific binding.
For assay [5], the target named is Serotoninergic 5-HT2C (Homo sapiens, UniProt P28335). The experiment in a line: CNS receptor binding assay. The settings on record: read-out: % Inhibition of control specific binding.
Assay [6] concerns the target Oppioid μ (Homo sapiens, UniProt P35372). The experiment in a line: CNS receptor binding assay. The settings on record: [3H] DAMGO, Human recombinant (HEK-293 cells), read-out: % Inhibition of control specific binding.
In assay [7] the target is Serotoninergic Transporter (Homo sapiens, UniProt P31645). The experiment in a line: CNS receptor binding assay. As to conditions: [3H] imipramine, Human recombinant (CHO cells), read-out: % Inhibition of control specific binding.
Sequence of Serotoninergic Transporter (P31645 whole entry): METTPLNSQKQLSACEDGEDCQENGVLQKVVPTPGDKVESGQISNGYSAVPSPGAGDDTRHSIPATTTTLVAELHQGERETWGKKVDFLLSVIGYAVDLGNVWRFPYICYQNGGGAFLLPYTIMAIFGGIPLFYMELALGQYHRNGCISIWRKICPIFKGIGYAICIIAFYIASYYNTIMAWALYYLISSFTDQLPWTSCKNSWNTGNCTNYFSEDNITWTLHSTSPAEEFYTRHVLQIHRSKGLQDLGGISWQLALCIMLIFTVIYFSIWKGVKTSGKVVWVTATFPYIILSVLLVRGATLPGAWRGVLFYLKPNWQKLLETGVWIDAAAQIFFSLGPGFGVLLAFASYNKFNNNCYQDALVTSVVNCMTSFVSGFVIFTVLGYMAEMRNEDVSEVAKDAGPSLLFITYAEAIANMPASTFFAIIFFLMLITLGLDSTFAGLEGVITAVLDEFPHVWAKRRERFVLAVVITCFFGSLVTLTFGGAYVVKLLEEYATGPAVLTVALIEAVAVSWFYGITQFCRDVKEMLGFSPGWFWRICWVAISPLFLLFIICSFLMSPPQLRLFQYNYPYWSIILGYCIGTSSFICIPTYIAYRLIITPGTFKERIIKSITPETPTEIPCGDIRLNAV
The target of assay [8] is T1, human progesterone receptor(PR) (Homo sapiens, UniProt P06401).
T1 construct: expressed in transfected cells; host or cells: HEK293T
T1 sequence (P06401 1-933): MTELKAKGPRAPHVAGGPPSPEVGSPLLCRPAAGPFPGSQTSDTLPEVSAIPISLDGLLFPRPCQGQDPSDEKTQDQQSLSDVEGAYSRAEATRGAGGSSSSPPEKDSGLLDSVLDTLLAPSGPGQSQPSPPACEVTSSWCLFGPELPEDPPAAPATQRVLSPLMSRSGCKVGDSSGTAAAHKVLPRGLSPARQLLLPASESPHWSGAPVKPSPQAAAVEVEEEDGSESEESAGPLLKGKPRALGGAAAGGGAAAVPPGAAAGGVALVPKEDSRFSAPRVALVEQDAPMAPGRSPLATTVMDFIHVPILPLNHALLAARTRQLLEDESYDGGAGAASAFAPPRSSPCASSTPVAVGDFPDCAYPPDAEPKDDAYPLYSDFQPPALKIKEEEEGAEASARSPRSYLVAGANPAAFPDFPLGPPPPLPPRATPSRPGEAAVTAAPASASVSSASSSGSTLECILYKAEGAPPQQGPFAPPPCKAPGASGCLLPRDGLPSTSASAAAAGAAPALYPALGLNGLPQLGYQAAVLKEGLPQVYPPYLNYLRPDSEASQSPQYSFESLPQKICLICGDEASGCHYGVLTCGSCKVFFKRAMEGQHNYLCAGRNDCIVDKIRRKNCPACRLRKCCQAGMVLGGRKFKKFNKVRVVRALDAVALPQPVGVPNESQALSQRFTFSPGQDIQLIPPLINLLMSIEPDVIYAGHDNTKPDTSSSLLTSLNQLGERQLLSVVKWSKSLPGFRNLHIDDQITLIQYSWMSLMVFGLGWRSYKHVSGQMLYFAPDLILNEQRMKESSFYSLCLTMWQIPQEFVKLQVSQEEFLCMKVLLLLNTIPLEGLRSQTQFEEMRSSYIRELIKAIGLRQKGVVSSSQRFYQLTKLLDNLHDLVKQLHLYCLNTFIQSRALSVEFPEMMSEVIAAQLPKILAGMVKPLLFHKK
The assay is described as follows: Progesterone receptor agonist transactivation (MMTV-luciferase) in transfected HEK293T cells. It counts as cell-based. The settings on record: 24 hours, increasing amounts, FIG. 1. The procedure:
The main experimental setting used is the following: HEK293T cells were transiently transfected, using calcium phosphate precipitation technology, with expression vectors pSG5hPR (which permits expression of human progesterone receptor(PR)), pFC31-luc (contains the luciferase gene under the control of the MMTV promoter, which is in turn activated by binding of a progestin to progesterone receptor) and pcbetagal (which permits expression of betagalactosidase), and cultured during 24 hours with increasing amounts of various compositions: • 1. […] Test of progesterone receptor […] activity: transfected cells were cultured with progesterone (1 nM) and increasing amounts of RU486 (a well-known progesterone receptor antagonist) or 3-methoxy-pregnenolone. • With this setting, a compound with progesterone receptor antagonist activity competes with progesterone for the occupation of progesterone receptor and results in a progressive loss of transactivation activity when the amount of this compound is increased compared to progesterone.

For assay [9], the target named is Serotoninergic 5-HT7 (Homo sapiens, UniProt P34969). The assay is described as follows: CNS receptor binding assay. The settings on record: read-out: % Inhibition of control specific binding.
Sequence of Serotoninergic 5-HT7 (P34969 whole entry): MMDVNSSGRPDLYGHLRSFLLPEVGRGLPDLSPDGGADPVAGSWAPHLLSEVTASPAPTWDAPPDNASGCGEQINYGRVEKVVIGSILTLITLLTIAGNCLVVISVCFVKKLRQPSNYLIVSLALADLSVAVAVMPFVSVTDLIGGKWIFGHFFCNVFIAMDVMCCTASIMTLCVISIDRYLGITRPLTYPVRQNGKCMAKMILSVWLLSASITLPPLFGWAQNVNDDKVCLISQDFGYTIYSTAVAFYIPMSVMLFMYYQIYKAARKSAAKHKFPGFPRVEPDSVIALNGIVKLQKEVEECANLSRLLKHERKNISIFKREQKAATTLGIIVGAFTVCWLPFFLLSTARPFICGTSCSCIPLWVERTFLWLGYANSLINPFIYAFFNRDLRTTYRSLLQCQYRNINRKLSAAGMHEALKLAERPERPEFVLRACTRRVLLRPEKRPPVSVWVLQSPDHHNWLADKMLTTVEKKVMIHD
Assay [10] concerns the target Androgen Receptor (AR) (Rattus norvegicus, UniProt P15207). The assay is described as follows: Radioligand binding assay, steroid hormone receptors. As to conditions: 1.5 nM [3H] Mibolerone, Rat recombinant E. coli, read-out: % inhibition of specific binding. As for the experimental part: Binding affinity of 3β-methoxy-PREG (MAP4343) for receptors of steroid hormones was evaluated using radioligand binding assays.

The target in assay [11] is Histaminergic H1 (Homo sapiens, UniProt P35367). The experiment in a line: CNS receptor binding assay. As to conditions: read-out: % Inhibition of control specific binding.
Assay [12] deals with Muscarinic (Cholinergic) M3 (Homo sapiens, UniProt P20309). The experiment in a line: CNS receptor binding assay. The settings on record: [3H] 4-DAMP, Human recombinant (CHO cells), read-out: % Inhibition of control specific binding.
Sequence of Muscarinic (Cholinergic) M3 (P20309 whole entry): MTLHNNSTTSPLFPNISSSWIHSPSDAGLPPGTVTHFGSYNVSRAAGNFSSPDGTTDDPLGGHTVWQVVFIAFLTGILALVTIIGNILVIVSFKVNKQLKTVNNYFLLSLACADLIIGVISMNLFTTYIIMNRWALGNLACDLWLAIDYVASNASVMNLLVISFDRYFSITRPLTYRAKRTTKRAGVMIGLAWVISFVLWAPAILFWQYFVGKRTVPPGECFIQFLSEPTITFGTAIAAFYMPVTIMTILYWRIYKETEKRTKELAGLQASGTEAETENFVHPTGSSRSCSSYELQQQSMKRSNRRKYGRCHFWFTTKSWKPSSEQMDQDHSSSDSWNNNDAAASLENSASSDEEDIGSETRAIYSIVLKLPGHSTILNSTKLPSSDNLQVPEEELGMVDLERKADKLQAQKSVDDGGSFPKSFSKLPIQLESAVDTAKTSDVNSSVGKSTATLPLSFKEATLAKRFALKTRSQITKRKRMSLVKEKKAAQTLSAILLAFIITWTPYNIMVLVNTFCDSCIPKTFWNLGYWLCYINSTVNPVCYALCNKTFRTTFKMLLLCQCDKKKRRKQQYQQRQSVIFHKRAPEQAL
The test system of assay [13] is GABA (non-selective). The experiment in a line: CNS receptor binding assay. As to conditions: 10 μM; [3H] GABA; rat cerebral cortex.
For assay [14], the target named is Dopaminergic D3 (Homo sapiens, UniProt P35462). The assay is described as follows: CNS receptor binding assay. As to conditions: read-out: % Inhibition of control specific binding.
Assay [15] concerns the target Muscarinic (Cholinergic) M2 (Homo sapiens, UniProt P08172). The experiment in a line: CNS receptor binding assay. The settings on record: [3H] AF-DX 384, Human recombinant (CHO cells), read-out: % Inhibition of control specific binding.
Assay [16] addresses Dopaminergic D1 (Homo sapiens, UniProt P21728). The experiment in a line: CNS receptor binding assay. As to conditions: read-out: % Inhibition of control specific binding.
Assay [17] has as its system NMDA PCP site. The assay is described as follows: CNS receptor binding assay. The settings on record: 10 μM; [3H] TCP; rat cerebral cortex.
Assay [18] addresses MAP2 (Homo sapiens, UniProt P11137). The assay is described as follows: Binding by displacement of PREG-3H.
Assay [19] deals with Oppioid κ (Rattus norvegicus, UniProt P34975). The assay is described as follows: CNS receptor binding assay. As to conditions: [3H] U 69593, rat recombinant (CHO cells), read-out: % Inhibition of control specific binding.

Sequence of Oppioid μ (P35372 whole entry): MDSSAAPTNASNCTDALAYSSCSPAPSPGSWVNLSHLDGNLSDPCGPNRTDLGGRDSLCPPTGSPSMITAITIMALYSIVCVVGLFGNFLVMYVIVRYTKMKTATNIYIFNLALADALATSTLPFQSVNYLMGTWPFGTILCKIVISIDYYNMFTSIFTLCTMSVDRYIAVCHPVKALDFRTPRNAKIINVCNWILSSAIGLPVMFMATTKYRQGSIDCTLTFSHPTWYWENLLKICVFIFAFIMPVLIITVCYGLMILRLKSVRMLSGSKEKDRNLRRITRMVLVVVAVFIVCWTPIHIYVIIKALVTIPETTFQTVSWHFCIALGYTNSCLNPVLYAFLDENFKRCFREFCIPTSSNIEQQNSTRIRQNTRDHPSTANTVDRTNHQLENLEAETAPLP
Sequence of Muscarinic (Cholinergic) M5 (P08912 whole entry): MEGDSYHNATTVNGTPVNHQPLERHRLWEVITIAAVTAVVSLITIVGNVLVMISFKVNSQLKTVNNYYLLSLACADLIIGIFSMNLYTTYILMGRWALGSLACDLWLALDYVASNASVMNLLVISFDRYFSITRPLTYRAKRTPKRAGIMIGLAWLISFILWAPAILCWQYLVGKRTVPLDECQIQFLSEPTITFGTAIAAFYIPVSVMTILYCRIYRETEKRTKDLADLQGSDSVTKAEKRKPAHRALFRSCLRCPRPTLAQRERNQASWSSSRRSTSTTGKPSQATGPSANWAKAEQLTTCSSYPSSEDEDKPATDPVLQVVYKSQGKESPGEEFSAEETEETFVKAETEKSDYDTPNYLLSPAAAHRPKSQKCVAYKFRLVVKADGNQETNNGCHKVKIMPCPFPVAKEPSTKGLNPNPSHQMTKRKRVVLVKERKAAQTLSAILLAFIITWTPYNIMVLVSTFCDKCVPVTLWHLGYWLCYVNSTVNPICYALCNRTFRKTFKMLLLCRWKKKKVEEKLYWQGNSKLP
Sequence of Dopaminergic D1 (P21728 whole entry): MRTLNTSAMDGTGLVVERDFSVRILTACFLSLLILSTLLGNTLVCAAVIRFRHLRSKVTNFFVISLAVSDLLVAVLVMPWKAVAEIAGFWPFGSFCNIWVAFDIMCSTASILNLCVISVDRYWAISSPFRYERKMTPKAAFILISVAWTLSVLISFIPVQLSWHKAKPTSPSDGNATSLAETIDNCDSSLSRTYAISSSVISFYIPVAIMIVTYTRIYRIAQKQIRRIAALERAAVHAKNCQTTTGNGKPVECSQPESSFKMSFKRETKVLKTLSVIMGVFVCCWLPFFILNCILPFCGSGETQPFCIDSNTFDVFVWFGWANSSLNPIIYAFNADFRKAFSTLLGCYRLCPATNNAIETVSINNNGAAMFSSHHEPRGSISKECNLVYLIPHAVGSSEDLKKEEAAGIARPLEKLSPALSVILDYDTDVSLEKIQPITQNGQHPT
Sequence of Serotoninergic 5-HT2B (P41595 whole entry): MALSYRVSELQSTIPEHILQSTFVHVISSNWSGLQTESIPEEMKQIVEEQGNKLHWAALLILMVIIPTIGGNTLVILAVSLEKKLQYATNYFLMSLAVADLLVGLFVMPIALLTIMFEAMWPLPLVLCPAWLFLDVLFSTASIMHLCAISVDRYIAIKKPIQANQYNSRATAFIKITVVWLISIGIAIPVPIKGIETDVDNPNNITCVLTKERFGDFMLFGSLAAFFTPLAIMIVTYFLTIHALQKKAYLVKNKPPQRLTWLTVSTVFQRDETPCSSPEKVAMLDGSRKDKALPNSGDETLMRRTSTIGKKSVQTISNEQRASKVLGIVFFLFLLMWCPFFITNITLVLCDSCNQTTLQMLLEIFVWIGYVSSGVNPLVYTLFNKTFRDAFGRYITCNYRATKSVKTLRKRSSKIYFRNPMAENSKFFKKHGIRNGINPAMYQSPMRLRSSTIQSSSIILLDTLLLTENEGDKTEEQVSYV
Sequence of Muscarinic (Cholinergic) M2 (P08172 whole entry): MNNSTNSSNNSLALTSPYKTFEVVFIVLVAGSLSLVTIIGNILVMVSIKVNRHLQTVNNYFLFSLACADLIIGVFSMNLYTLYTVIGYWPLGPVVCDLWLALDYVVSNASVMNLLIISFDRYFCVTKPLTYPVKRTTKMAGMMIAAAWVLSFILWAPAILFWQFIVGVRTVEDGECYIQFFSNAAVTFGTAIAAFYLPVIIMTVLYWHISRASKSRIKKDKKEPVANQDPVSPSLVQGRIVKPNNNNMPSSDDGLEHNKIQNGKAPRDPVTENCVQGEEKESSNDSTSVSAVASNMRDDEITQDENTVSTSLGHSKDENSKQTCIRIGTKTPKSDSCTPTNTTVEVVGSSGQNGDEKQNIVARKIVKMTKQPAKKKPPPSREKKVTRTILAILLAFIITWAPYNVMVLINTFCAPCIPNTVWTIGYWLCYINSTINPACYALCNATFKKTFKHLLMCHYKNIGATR

In the case of `CO[C@H]1CC[C@@]2(C)C(=CC[C@H]3[C@@H]4CC[C@H](C(C)=O)[C@@]4(C)CC[C@@H]32)C1` [MAP4343, 3β-methoxy-pregna-5-ene-20-one], the inhibition at 10 µM in [1] was -4%; in assay [2] it was 2%; in assay [3] it was 3%; in assay [4], 12%; in [5] it was 7%; in assay [6] it was 0%. Besides, the inhibition at 10 µM is 3% in assay [7]; -11% in assay [9]; below 25% in assay [10]; 9% in assay [11]; 3% in [12]; 8% in [14]. In addition, the inhibition at 10 µM in assay [15] is 20%; in [16], 2%; in assay [19], 19%. Moreover, the “progesterone receptor agonist activity (transactivation, luciferase expression)” value in assay [8] is recorded as “does not have progesterone receptor agonist activity”. Also, the figures for the “% Inhibition of control specific binding” value in assay [13] and in assay [17] were 2% and −10%, respectively. Besides, the “Affinity (index of binding, percent of PREG)” value in [18] is given as 100% of PREG.

(Values after patent US20210322443A1 (MAPREG, priority 2015, published 2021).)
